Experimental data as given in patent publication US10723998B2, “Application of ethyl p-methoxycinnamate and derivatives thereof in maintaining self-renewal and pluripotency of stem cells” (NORTHEAST NORMAL UNIVERSITY, priority 2015, dated 2020).

Key:
Oct4 mRNA = Oct4 mRNA expression by RT-PCR and agarose gel electrophoresis in P19 cells; type: cell-based, mouse; settings: 5 μg/mL, 12 h, DMSO control, FIG. 2
Method: P19 cells were inoculated in a 6-well cell culture plate at a density of 2×10^5 cells/well. After 24 h, DMEM culture medium containing 3% serum were used for replacement. Ethyl p-methoxycinnamate was added to the experimental group to render its final concentration at 5 μg/mL, and a control group was treated with DMSO. After 12 h, the 6-well plate overgrown with monolayer cells was taken out from a cell incubator, and the cells were washed 3 times with pre-cooled PBS. 1 mL of a pre-cooled Trizol solution was added. After vigorous pipetting, the mixture was transferred to an EP tube and allowed to stand at room temperature for 5 min. Then 200 μL of chloroform was added to the mixture, vigorously mixed well for 15 s, and the mixture containing chloroform was allowed to stand at room temperature for 2 min and centrifuged at 12000 rpm at 4° C. for 15 min. An upper aqueous phase was pipetted into another EP tube, and an equal volume of pre-cooled isopropanol was added, and the mixture was inverted several times and allowed to stand at room temperature for 10 min to precipitate RNA. After centrifugation at 12000 rpm for 10 min, the supernatant was discarded, and to the precipitate was added 1 mL of 75% ethanol (prepared by 0.1% DEPC water) for washing, followed by centrifugation at 7500 rpm for 5 min (this step was repeated once). The supernatant was discarded. […]

Oct4 protein = Oct4 protein expression by Western Blot in P19 cells; type: cell-based, mouse; settings: 5 μg/mL, 24 h, DMSO control, FIG. 3
Method: The effect of ethyl p-methoxycinnamate on Oct4 protein expression was assayed using a Western Blot method. Mouse teratoma cells P19 were inoculated in a 6-well plate. After 24 h, ethyl p-methoxycinnamate with a final concentration of 5 μg/mL was added to continue to act for another 24 h, and the control group was treated with DMSO. After the cells were washed with PBS three times, the cells were scraped with a scraper, transferred to an EP tube, and centrifuged at 4000 rpm for 5 min. The supernatant was discarded. 90 μL of lysis solution (50 mM Tris-HCl pH 7.5, 150 mM NaCl, 1 mM NaF, 0.5% NP-40, 2 μg/mL Aprotinin, and 1 mM PMSF) was added to each tube of precipitate, and the EP tube was treated on ice for 30 min and vortexed once every 5 min, so that the cells were completely lysed. After centrifugation at 12000 rpm for 10 min, the supernatant was transferred to a new EP tube, 1/3 volume of 4× protein loading buffer was added, mixed well, and boiled for 10 min, and after instantaneous centrifugation, the mixture was subjected to electrophoresis or placed at −80° C. to be frozen for standby use.
A transfer membrane buffer was prepared and precooled at 4° C. A PVDF membrane was soaked in methanol for 40 s, then taken out and soaked in the transfer membrane buffer for standby use. […]

CCOC(=O)C=Cc1ccc(OC)cc1 [ethyl p-methoxycinnamate]
effect on the expression of Oct4 mRNA (Oct4 mRNA): can significantly promote the expression of Oct4 mRNA | effect on the expression of Oct4 protein (Oct4 protein): can promote the expression of Oct4 protein
